PMC8914261, “Discovery and Characterization of the Naturally Occurring Inhibitors Against Human Pancreatic Lipase in Ampelopsis grossedentata” (Frontiers in Nutrition, 2022)

Columns and labels:
[1] = oral administration; ref [60], [61]; cited from earlier work
[2] = target: T1, human pancreatic lipase (hPL) (Homo sapiens, UniProt P16233); assay: hPL inhibition assay (hPL-catalyzed DDAO-ol hydrolysis, fluorescence); type: biochemical; conditions: for IC50: hPL, DDAO-ol 20 μM as substrate, 3 min pre-incubation at 37°C; for hPL inhibition activity (qualitative): tested at 1, 10 and 100 μM; for remaining activity at 10 µM: inhibitor at 10 μM, read-out: residual activities of hPL; for hPL inhibition at high dose: inhibitor at 100 μM
T1 construct: made in house
T1 sequence (P16233 17-465): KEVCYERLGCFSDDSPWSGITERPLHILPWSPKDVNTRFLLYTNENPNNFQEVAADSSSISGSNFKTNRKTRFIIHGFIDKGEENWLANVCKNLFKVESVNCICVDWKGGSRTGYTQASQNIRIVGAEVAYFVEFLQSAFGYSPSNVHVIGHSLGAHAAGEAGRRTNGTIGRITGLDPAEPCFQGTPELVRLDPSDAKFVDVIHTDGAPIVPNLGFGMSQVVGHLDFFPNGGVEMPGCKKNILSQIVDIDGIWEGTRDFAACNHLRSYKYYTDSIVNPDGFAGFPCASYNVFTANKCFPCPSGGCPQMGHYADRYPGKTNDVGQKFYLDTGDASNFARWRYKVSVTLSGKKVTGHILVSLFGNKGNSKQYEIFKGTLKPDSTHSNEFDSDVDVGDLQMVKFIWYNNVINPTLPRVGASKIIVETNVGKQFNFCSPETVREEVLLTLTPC

[3] = Estimated local exposure in the gastrointestinal tract (daily dose divided by volume of the human gastrointestinal system); conditions: oral AGE at daily dosage recommended by Chinese Materia Medica
Source text: A. grossedentata is known as the “king of flavonoids”, while the content of total flavonoids in AGE is up to 45% ([57]). Herein, a total of nine flavonoids in AGE were identified and characterized by LC–MS/MS-based chemical profiling.

[4] = target: T1, human pancreatic lipase (hPL); assay: Time-dependent inhibition assay of hPL (different pre-incubation times); type: biochemical; conditions: long pre-incubation time vs. standard
Description: After pre-incubating at 37°C for 3 min, the substrate of DDAO-ol (20 μM, final concentration) was added to the initial reaction. […] The standard curve was plotted using DDAO as product standard (Supplementary Figure S6). The control incubations without inhibitors were also performed.

[5] = target: T1, human pancreatic lipase (hPL); assay: Inhibition kinetic analyses against hPL-catalyzed DDAO-ol hydrolysis (Lineweaver-Burk); type: biochemical

Which “local exposure in stomach and small intestine vs. other deep organs (heart, liver, spleen, lung, kidney, brain)” value [1] does the source give for `O=C1c2c(O)cc(O)cc2O[C@H](c2cc(O)c(O)c(O)c2)[C@H]1O` [Dihydromyricetin] here?
Its value is “much higher”.

And the oral bioavailability [1]?
Its oral bioavailability is “very poor”.

And the IC50 [2]?
Its IC50 is 34.3 ± 4.63 µM.

What about the “local exposure in the gastrointestinal tract” value [3] of the same molecule?
Its value is 206.08 µM.

For `O=C1c2c(O)cc(O)cc2O[C@H](c2cc(O)c(O)c(O)c2)[C@@H]1O` [Iso-dihydromyricetin], which IC50 [2] is on record?
The IC50 was 14.4 ± 1.21 µM.

And the “hPL inhibition activity (qualitative)” value [2]?
The value was “moderate”.

And the “local exposure in the gastrointestinal tract” value [3]?
The value was 106.90 µM.

For `O=c1c(O)c(-c2cc(O)c(O)c(O)c2)oc2cc(O)cc(O)c12` [Myricetin], which “time dependence of hPL inhibition” value [4] is on record?
The value was “not time-dependent”.

And the IC50 [2]?
The IC50 was 1.34 ± 0.18 µM.

What about the remaining activity at 10 µM [2] of the same molecule?
The remaining activity at 10 µM was < 15%.

And the “local exposure in the gastrointestinal tract” value [3]?
Its value is 19.37 µM.

What about the Ki ([5]; apparent Ki) of the same molecule?
The Ki was 2.04 ± 0.75 µM.

Which “time dependence of hPL inhibition” value [4] does the source give for `O=c1c(O)c(-c2ccc(O)c(O)c2)oc2cc(O)cc(O)c12` [Quercetin] here?
The value was “not time-dependent”.

And the remaining activity at 10 µM [2]?
The remaining activity at 10 µM was < 15%.

What about the Inhibition mode ([5]; Lineweaver-Burk plots) of the same molecule?
Its Inhibition mode is “Non-competitive”.

For `O=c1c(O[C@@H]2OC[C@@H](O)[C@H](O)[C@H]2O)c(-c2ccc(O)c(O)c2)oc2cc(O)cc(O)c12` [Reynoutirn, Reynoutrin], which IC50 [2] is on record?
Its IC50 is > 100 µM.

What about the “hPL inhibition at high dose” value [2] of the same molecule?
Its value is “did not inhibit”.

Which IC50 [2] does the source give for `O=C1c2c(O)cc(O)cc2OC(c2ccc(O)c(O)c2)C1O` (stereo not shown) [Taxifolin] here?
Its IC50 is 27.8 ± 2.92 µM.

What about the “hPL inhibition activity (qualitative)” value [2] of the same molecule?
The value was “moderate”.

And the “local exposure in the gastrointestinal tract” value [3]?
Its value is 11.85 µM.

With Myricitrin as the molecule, how does the “hPL inhibition at high dose” value [2] read?
The value was “did not inhibit”.

With “Sanggenone C [SanggenoneC, reference compound]” as the molecule, how does the IC50 [2] read?
The IC50 was 3.46 ± 0.07 µM.
